The numbers were not newly measured in US6444700B1, “Product and method to reduce stress induced immune suppression” (Abbott Laboratories, priority 1998, dated 2002), which cites them from elsewhere.

SMILES strings stand for the structures.

Consider `CC1=C(/C=C/C(C)=C/C=C/C(C)=C/CO)C(C)(C)CCC1` [Vitamin A, retinol], for which, under “foods and supplements”, the “sustained daily intake at which signs of toxicity usually appear” value is recorded as “exceeding 15,000 RE”.
For the compound `[Se]` [selenium], under “seleniferous zone of China”, the “intake from foods resulting in fingernail changes and hair loss” value was “approximately 5 mg per day”.
Regarding `CC1=C(/C=C/C(C)=C/C=C/C(C)=C/C=C/C=C(C)/C=C/C=C(C)/C=C/C2=C(C)CCCC2(C)C)C(C)(C)CCC1` [β-Carotene], under “compared with vitamin A”, the “toxicity when given in very high doses” value is given as “not toxic”.
